Data on 61 compounds can be found in patent US8101768B2, “Cyclic amine compound and pest control agent” (Nippon Soda Co., Ltd., priority 2004, dated 2012).

The test has as its system organophosphorous agent resistant two-spotted spider mites. Put plainly: Effect on Two-spotted Spider Mite (spray on kidney bean leaves). It is filed as in vivo. The settings on record: 125 ppm, water dispersible powder of Formulation Example 1 sprayed, 17 female adults, 25° C., 65% humidity, 3 days. The source says: Effect on Two-spotted Spider Mite
17 female adults of organophosphorous agent resistant two-spotted spider mites were inoculated onto the first leaves of kidney beans seeded onto 3.5 inch pots and germinated 7 to 10 days before, onto which each of liquid agents, diluted with water so as to adjust the respective concentration of the chemical compounds to 125 ppm according to the formulation of the water dispersible powder shown in the aforementioned Formulation Example 1, was sprayed. After they were left in a thermostatic chamber at 25° C. in 65% humidity for 3 days, the rate of killed adults was investigated. The examination was repeated twice. As the results, the following chemical compounds killed 100% of the adults.
`N#Cc1cc(C(F)(F)F)ccc1O[C@@H]1[C@@H]2CC[C@H]1CN(c1ccc(C(F)(F)F)cn1)C2` [5-32]: the “rate of killed adults” value was determined as 100%.
The value for `CC(C)OC(=O)c1cc(C(F)(F)F)ccc1OC1CC2CCC(C1)N2c1ccc(C(F)(F)F)cn1` (stereo not shown) [2-196] was 100%; that for `FC(F)(F)c1ccc(N2CC3CCC(C2)C3Oc2ccc(C(F)(F)F)cc2OCc2ccoc2)nc1` (stereo not shown) [5-207] was 100%.
With `FC(F)(F)c1ccc(N2CC3CCC(C2)C3Oc2ccc(C(F)(F)F)cc2OCC2CCCO2)nc1` (stereo not shown) [5-214] the figure was 100%; with `CCCCCOc1cc(C(F)(F)F)ccc1OC1CC2CCC(C1)N2c1ccc(C(F)(F)F)cn1` (stereo not shown) [2-100], 100%; with `O=C(OCC(F)(F)F)c1cc(C(F)(F)F)ccc1OC1CC2CCC(C1)N2c1ccc(C(F)(F)F)cn1` (stereo not shown) [2-240], 100%.
The value for `CCCOc1cc(C(F)(F)F)ccc1O[C@H]1C[C@H]2CC[C@@H](C1)N2c1ccc(C(F)(F)F)cn1` [2-82, 3α-[2-propoxy-4-(trifluoromethyl)phenoxy]-8-[5-(trifluoromethyl)-2-pyridyl]-8-azabicyclo[3.2.1]octane] was 100%; that for `CCCOc1cc(C(F)(F)F)ccc1OC1CC2CCC(C1)[N+]2([O-])c1ccc(C(F)(F)F)cn1` (stereo not drawn) [2-84, 3α-[2-propoxy-4-(trifluoromethyl)phenoxy]-8-oxy-8-[5-(trifluoromethyl)-2-pyridyl]-8-azabicyclo[3.2.1]octane] was 100%.
As to `CCCOc1cc(C#N)ccc1O[C@@H]1[C@@H]2CC[C@H]1CN(c1ccc(C(F)(F)F)cn1)C2` [5-102], the “rate of killed adults” value was determined as 100%.
The value for `FC(F)(F)c1ccc(N2CC3CCC(C2)C3Oc2ccc(C(F)(F)F)cc2OCc2cccnc2)nc1` (stereo not shown) [5-211] was 100%; that for `CCC1COC(c2cc(C(F)(F)F)ccc2OC2CC3CCC(C2)N3c2ccc(C(F)(F)F)cn2)=N1` (stereo not shown) [2-220] was 100%.
With `FC(F)(F)c1ccc(N2C[C@H]3CC[C@@H](C2)[C@@H]3Oc2ccc(C(F)(F)F)cc2OC2CC2(Cl)Cl)nc1` (stereo partly shown) [5-104] the figure was 100%; with `FC(F)(F)c1ccc(N2CCC(Oc3ccc(Br)cc3)CC2)nc1` [1-19], 100%.
With `C=C(C)COc1cc(C(F)(F)F)ccc1OC1CC2CCC(C1)N2c1ccc(C(F)(F)F)cn1` (stereo not drawn) [2-147, 3α-[2-(2-methylallyloxy)-4-(trifluoromethyl)phenoxy]-8-[5-(trifluoromethyl)-2-pyridyl]-8-azabicyclo[3.2.1]octane] the figure was 100%; with `CCN(C)C(=O)c1cc(C(F)(F)F)ccc1O[C@@H]1[C@@H]2CC[C@H]1CN(c1ccc(C(F)(F)F)cn1)C2` [5-249], 100%; with `O=C(OC1CCCC1)c1cc(C(F)(F)F)ccc1OC1CC2CCC(C1)N2c1ccc(C(F)(F)F)cn1` (stereo not shown) [2-223], 100%.
For `FC(F)(F)c1ccc(N2CC3CCC(C2)C3Oc2ccc(C(F)(F)F)cc2OCCCl)nc1` (stereo not shown) [5-147], the “rate of killed adults” value was determined as 100%.
Turning to `CCCSc1cc(C(F)(F)F)ccc1OC1CC2CCC(C1)N2c1ccc(C(F)(F)F)cn1` (stereo not shown) [2-165], the “rate of killed adults” value is reported as 100%.
Turning to `CCS(=O)(=O)Oc1cc(C(F)(F)F)ccc1OC1CC2CCC(C1)N2c1ccc(C(F)(F)F)cn1` (stereo not shown) [2-152], the “rate of killed adults” value turned out to be 100%.
Consider `CON=Cc1cc(C(F)(F)F)ccc1OC1CC2CCC(C1)N2c1ccc(C(F)(F)F)cn1` (stereo not shown) [2-211], for which the “rate of killed adults” value is recorded as 100%.
The value for `O=C(OCC1CC1)c1cc(C(F)(F)F)ccc1OC1CC2CCC(C1)N2c1ccc(C(F)(F)F)cn1` (stereo not shown) [2-237] was 100%; that for `COCC(C)OC(=O)c1cc(C(F)(F)F)ccc1OC1CC2CCC(C1)N2c1ccc(C(F)(F)F)cn1` (stereo not shown) [2-234] was 100%.
Turning to `CC(C)(C)COc1cc(C(F)(F)F)ccc1OC1CC2CCC(C1)N2c1ccc(C(F)(F)F)cn1` (stereo not shown) [2-111], the “rate of killed adults” value is 100%.
With `CS(=O)(=O)Oc1cc(C(F)(F)F)ccc1OC1CC2CCC(C1)N2c1ccc(C(F)(F)F)cn1` (stereo not shown) [2-151] the figure was 100%; with `CC(C)COc1cc(C(F)(F)F)ccc1OC1CC2CCC(C1)N2c1ccc(C(F)(F)F)cn1` (stereo not shown) [2-98], 100%.
The value for `CCCOc1cc(C(F)(F)F)ccc1OC1CC2CCC(C1)N2c1ccc(C)cn1` (stereo not shown) [2-89] was 100%.
With `CC(C)(C)C(=O)Oc1cc(C(F)(F)F)ccc1OC1C2CCC1CN(c1ccc(C(F)(F)F)cn1)C2` (stereo not shown) [5-200] the figure was 100%.
Regarding `FC(F)(F)c1ccc(N2CCC(Oc3ccc(C(F)(F)F)cc3COC3CCCO3)CC2)nc1` (stereo not shown) [1-180], the “rate of killed adults” value is given as 100%.
With `CC(=O)COc1cc(C(F)(F)F)ccc1O[C@@H]1[C@@H]2CC[C@H]1CN(c1ccc(C(F)(F)F)cn1)C2` [5-126] the figure was 100%.
With `CC(O)COc1cc(C(F)(F)F)ccc1OC1CC2CCC(C1)N2c1ccc(C(F)(F)F)cn1` (stereo not shown) [2-173] the figure was 100%.
For `FC(F)(F)c1ccc(N2CC3CCC(C2)C3Oc2ccc(C(F)(F)F)cc2OCC2CCOC2)nc1` (stereo not shown) [5-205], the “rate of killed adults” value came out at 100%.
The value for `FC(F)(F)c1ccc(N2[C@@H]3CC[C@H]2C[C@@H](Oc2ccc(C(F)(F)F)cc2SCC2CC2)C3)nc1` [2-166] was 100%; that for `CON=C(C)COc1cc(C(F)(F)F)ccc1OC1C2CCC1CN(c1ccc(C(F)(F)F)cn1)C2` (stereo not shown) [5-184] was 100%.
With `COCC(C)Oc1cc(C(F)(F)F)ccc1OC1CC2CCC(C1)N2c1ccc(C(F)(F)F)cn1` (stereo not shown) [2-178] the figure was 100%.
On to `CCCNc1cc(C(F)(F)F)ccc1OC1CCN(c2ccc(C(F)(F)F)cn2)CC1` [1-173], for which the “rate of killed adults” value was 100%.
The value for `CCCN(C)c1cc(C(F)(F)F)ccc1OC1C2CCC1CN(c1ccc(C(F)(F)F)cn1)C2` (stereo not shown) [5-191] was 100%; that for `CCOc1cc(C(F)(F)F)ccc1OC1CC2CCC(C1)N2c1ccc(C(F)(F)F)cn1` (stereo not shown) [2-78] was 100%.
With `FC(F)(F)c1ccc(N2C[C@H]3CC[C@@H](C2)[C@@H]3Oc2ccc(C(F)(F)F)cc2OCc2ccccc2)nc1` [5-106] the figure was 100%; with `CCC(=O)Oc1cc(C(F)(F)F)ccc1OC1C2CCC1CN(c1ccc(C(F)(F)F)cn1)C2` (stereo not shown) [5-198], 100%.
With `CCCOCc1cc(C(F)(F)F)ccc1OC1CC2CCC(C1)N2c1ccc(C(F)(F)F)cn1` (stereo not shown) [2-171] the figure was 100%; with `CCCOc1cc(C(F)(F)F)ccc1O[C@@H]1[C@@H]2CC[C@H]1CN(c1ccc(C#N)cn1)C2` [5-96], 100%.
With `Cc1noc(-c2cc(C(F)(F)F)ccc2OC2CC3CCC(C2)N3c2ccc(C(F)(F)F)cn2)n1` (stereo not shown) [2-200], the “rate of killed adults” value came out at 100%.
With `C#CCON=Cc1cc(C(F)(F)F)ccc1OC1CC2CCC(C1)N2c1ccc(C(F)(F)F)cn1` (stereo not shown) [2-221] the figure was 100%; with `C=CCc1cc(C(F)(F)F)ccc1O[C@@H]1[C@@H]2CC[C@H]1CN(c1ccc(C(F)(F)F)cn1)C2` [5-75], 100%.
With `CC1(C)COC(c2cc(C(F)(F)F)ccc2OC2CC3CCC(C2)N3c2ccc(C(F)(F)F)cn2)=N1` (stereo not shown) [2-210] the figure was 100%; with `COCCc1cc(C(F)(F)F)ccc1O[C@@H]1[C@@H]2CC[C@H]1CN(c1ccc(C(F)(F)F)cn1)C2` [5-246], 100%; with `CC(=O)OC(CC(C)C)c1cc(C(F)(F)F)ccc1O[C@@H]1[C@@H]2CC[C@H]1CN(c1ccc(C(F)(F)F)cn1)C2` (stereo partly shown) [5-258], 100%.
Consider `FC(F)(F)c1ccc(N2C3CCC2CC(Oc2ccc(C(F)(F)F)cc2OCCCl)C3)nc1` (stereo not shown) [2-138], for which the “rate of killed adults” value was found to be 100%.
With `CCCCC(O)c1cc(C(F)(F)F)ccc1OC1C2CCC1CN(c1ccc(C(F)(F)F)cn1)C2` (stereo not shown) [5-238] the figure was 100%; with `C=CCCOc1cc(C(F)(F)F)ccc1OC1C2CCC1CN(c1ccc(C(F)(F)F)cn1)C2` (stereo not shown) [5-176], 100%.
With `COC(C)COc1cc(C(F)(F)F)ccc1OC1C2CCC1CN(c1ccc(C(F)(F)F)cn1)C2` (stereo not shown) [5-128] the figure was 100%; with `C=CCCOc1cc(C(F)(F)F)ccc1OC1CC2CCC(C1)N2c1ccc(C(F)(F)F)cn1` (stereo not shown) [2-144], 100%; with `CC(C)Oc1cc(C(F)(F)F)ccc1OC1CC2CCC(C1)N2c1ccc(C(F)(F)F)cn1` (stereo not shown) [2-96], 100%.
Take `CC(C)S(=O)(=O)Oc1cc(C(F)(F)F)ccc1OC1C2CCC1CN(c1ccc(C(F)(F)F)cn1)C2` (stereo not shown) [5-164]: the “rate of killed adults” value came out at 100%.
The value for `COC(C)COc1cc(C(F)(F)F)ccc1OC1CC2CCC(C1)N2c1ccc(C(F)(F)F)cn1` (stereo not shown) [2-130] was 100%; that for `CC1CN=C(c2cc(C(F)(F)F)ccc2OC2CC3CCC(C2)N3c2ccc(C(F)(F)F)cn2)O1` (stereo not shown) [2-201] was 100%.
With `CC(C)(C)CC(O)c1cc(C(F)(F)F)ccc1O[C@@H]1[C@@H]2CC[C@H]1CN(c1ccc(C(F)(F)F)cn1)C2` (stereo partly shown) [5-255] the figure was 100%.
With `OCCOc1cc(C(F)(F)F)ccc1OC1CC2CCC(C1)N2c1ccc(C(F)(F)F)cn1` (stereo not shown) [2-115] the figure was 100%; with `CC(CBr)OC(=O)c1cc(C(F)(F)F)ccc1OC1CC2CCC(C1)N2c1ccc(C(F)(F)F)cn1` (stereo not shown) [2-236], 100%; with `CCCN(CCC)c1cc(C(F)(F)F)ccc1OC1CCN(c2ccc(C(F)(F)F)cn2)CC1` [1-174], 100%.
On to `CC1COC(c2cc(C(F)(F)F)ccc2OC2CC3CCC(C2)N3c2ccc(C(F)(F)F)cn2)=N1` (stereo not shown) [2-199], for which the “rate of killed adults” value is listed as 100%.
